This is an account of results in US20080182234A1, “Methods and Compositions for Modulating Adenosine Triphosphate (ATP) in Cells and Preventing Cell Injury or Death via Post-translational Modifications to ATP Synthase” (priority 2001, published 2008).

In assay [1] the test system is isolated myocytes obtained from rabbit hearts. As to conditions: 100 μM adenosine for 60 minutes; cited from earlier work.
Assay [2] deals with ATP synthase β chain precursor. Put plainly: Two-dimensional gel electrophoresis (silver stain, western blot) of cytoplasmic extract of adenosine-treated isolated myocytes. In kind it is cell-based, rabbit. As for the experimental part: Ventricular myocytes from New Zealand White rabbits (weighing 1 to 2 kg) were isolated by collagenase dissociation, as described previously by Liu et al. (Circ. Res. 1996 78:443-454). Hearts were excised, then perfused with collagenase (1.0 mg/mL, Worthington type II) for 14 minutes at a maintained perfusion pressure of 75 mm Hg on a Langendorff apparatus, yielding >50% Ca^2+-tolerant ventricular myocytes. Cell isolation was followed directly by pharmacological preconditioning, which was carried out by treatment with 100 μmol/L adenosine (Sigma) for 60 minutes in a 37° C. water bath, as described previously by Liu et al. supra. Untreated cells were prepared concurrently as drug-free controls. Equivalent 25 μL aliquots of cells (containing ˜30 mg/mL of protein as determined by Lowry assay (Lowry, O. H. J. Biol. Chem. 1951 193:265-275) were frozen and stored at −80° C. until analysis. All steps in the “1N Sequence” protein extraction protocol to produce cytoplasmic and myofilament enriched extracts were carried out at 4° C., and all centrifugations were conducted at 16000×g for 2 minutes at 4° C. Myocyte proteins were first extracted by two rounds of homogenization in 100 μL of HEPES extraction buffer, consisting of (in mmol/L) HEPES 25 (pH 7.4), NaF 50, Na3VO4 0.25, phenylmethylsulfonyl fluoride 0.25, EDTA 0.5, and (in μmol/L) leupeptin 1.25, pepstatin A 1.25. […]
In general terms: A western blot detects proteins with antibodies after separation by electrophoresis.

“Also recorded” adds a separate entry of the source.

For `Nc1ncnc2c1ncn2[C@@H]1O[C@H](CO)[C@@H](O)[C@H]1O` [adenosine], in assay [1], the “protection against cell death” value was “sufficient to protect against cell death”. In addition, the “additional, more acidic spots at the molecular weight of intact ATP synthase β chain precursor on 2-D gel (silver stain or western blot)” value in assay [2] (isolated rabbit cardiomyocytes, 100 μM adenosine for 60 minutes, cytoplasmic extract, n=4, control had only a single protein spot) is listed as “Two additional spots”. In addition, in assay [2] (isolated rabbit myocytes treated with adenosine for 60 minutes (n=4) versus untreated myocytes), the “post-translational modifications of ATP synthase β-chain precursor” value was “An increase in the post-translational modifications; also recorded: Post-translational modifications to the ATP synthase β-chain precursor were detected”.
